Patent US8815919B2, “Oxadiazole derivatives” (Merck Serono SA, priority 2009, dated 2014)
Counter-ions that a name gives are not always drawn. Like-named read-outs stand apart in the source and are kept apart here.

Tests used:
S1P1 [1] = target: T1, S1P1 (Homo sapiens, UniProt P21453); assay: S1P1 internalization assay in S1P1-U2OS cells (S1P1-EGFP), cell imaging; format: cell-based; parameters: host or cells: U2OS (human bone osteosarcoma epithelial cells), CMV promoter, geneticin selection; conditions: 1 hour incubation
Experimental: Cellular functional assays: Internalization of Sphingosine-1-phosphate receptor 1 (S1P1) in a human Cell line (U2OS) in a 384-well format using a Cell Imaging analysis. • Jo, E.; Sanna, M. G.; Gonzalez-Cabrera, P. J.; Thangada, S.; Tigyi, S.; Osborne, D. A.; Hla, T.; Parrill, A. L.; Rosen, H. Chem. Biol. 2005, 12, 703
The S1P1 internalization assay was performed in 384 well plates (Corning® 384 black with clear bottom 3712) using S1P1-U2OS cells from Biolmage (C039A), a human epithelial cell line (Human Bone Osteosarcoma Epithelial Cells). These cells expressed the human S1P1 Receptor fused to the green fluorescent protein (EGFP). A standard CMV promoter (cytomegalovirus promoter) controls the expression of S1P1-EGFP and continuous expression was maintained by addition of geneticin to the culture medium.
S1P1 Receptor desensitization induced the internalization of the membrane-localized S1P1-EGFP fusion protein to endosomes, which can be monitored by cell imaging analysis. The cells are plated in low serum medium (Dulbecco's Modified Eagle Medium (DMEM) with Glutamax-1 and high glucose, 1% Penicillin/Streptomycin, 1% Fetal Calf Serum (FCS), 0.5 mg/ml Geneticin) overnight.
The next day, S1P1-U2OS cells are incubated in 20 μl serum free medium (DMEM with Glutamax-1 and high glucose, 0.1% of fatty-acid free Bovin Serum Albumin (BSA), 10 mM, N′-2-Hydroxyethylpiperazine-N′-2 ethanesulphonic acid (HEPES) 1M) for 2 hours at 37° C./5% CO2. The cells are then treated with 4 μl compounds/agonists (6×/3% DMSO) for a total volume of 24 μl, and plates are incubated for 1 hour at 37° C./5% CO2.
S1P1-U2OS cells are fixed with 25 μl Paraformaldehyde 8% and stained with Hoechst 33345 dye (1:1000) for 20 minutes.
They were then washed 3 times with Phosphate Buffered Saline (PBS) and plates are sealed. The internalization of the receptor S1P1-EGFP is measured on Cellomics by calculating the “spot count per object” (“object” corresponds to nuclear and “spot” corresponds to S1P1-EGFP receptor). Internalization data were observed thanks to vHCS View and analyzed using Genedata® software.
Target sequence in this assay (P21453 whole entry): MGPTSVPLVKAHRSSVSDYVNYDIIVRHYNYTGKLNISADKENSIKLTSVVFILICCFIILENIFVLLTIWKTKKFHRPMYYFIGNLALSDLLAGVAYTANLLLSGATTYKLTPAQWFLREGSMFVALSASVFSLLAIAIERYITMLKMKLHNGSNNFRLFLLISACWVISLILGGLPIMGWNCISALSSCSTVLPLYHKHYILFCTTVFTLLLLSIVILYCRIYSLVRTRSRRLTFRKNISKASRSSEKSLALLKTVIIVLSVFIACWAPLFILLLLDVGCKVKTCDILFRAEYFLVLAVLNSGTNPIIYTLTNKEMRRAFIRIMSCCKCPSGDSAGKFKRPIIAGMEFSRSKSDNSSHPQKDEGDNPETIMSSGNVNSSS

S1P3 = S1P3 (Homo sapiens, UniProt Q99500); assay: Receptor binding assay, [33P]sphingosine 1-phosphate competition, S1P3 membranes, WGA SPA beads
Chain of S1P3 (Q99500 whole entry, species assumed): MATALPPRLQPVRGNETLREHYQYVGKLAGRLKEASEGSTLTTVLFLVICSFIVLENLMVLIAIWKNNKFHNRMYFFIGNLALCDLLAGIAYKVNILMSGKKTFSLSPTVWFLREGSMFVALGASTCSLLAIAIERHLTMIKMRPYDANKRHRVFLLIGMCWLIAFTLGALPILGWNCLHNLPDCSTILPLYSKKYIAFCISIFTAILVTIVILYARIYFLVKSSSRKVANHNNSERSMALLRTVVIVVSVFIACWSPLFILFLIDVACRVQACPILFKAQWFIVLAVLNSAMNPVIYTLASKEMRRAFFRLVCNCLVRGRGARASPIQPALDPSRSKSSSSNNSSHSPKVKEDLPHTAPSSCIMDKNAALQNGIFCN
Experimental: (§1) Membranes were prepared from CHO cells expressing S1P1 or S1P3 for use in ligand and […] binding studies. Cells were suspended in 50 mM TRIS, pH 7.4, 2 mM EDTA, 250 mM Sucrose (buffer A) and 1× Complete protease inhibitor cocktail (Roche), and disrupted at 4° C. by N2 decompression using a cell disruption bomb (Parr Instrument). Following centrifugation at 1000 RPM for 10 min at 4° C., the supernatant was diluted (2×) in buffer A and centrifuged again at 19000 RPM for 75 min at 4° C. The pellet was then suspended in 10 mM HEPES, pH 7.4, 1 mM EDTA, 250 mM Sucrose (Buffer B), and 1× Complete EDTA-free protease inhibitor cocktail and homogenized using a potter. Membranes were flash frozen in liquid N2 and stored at −80° C.
(§2) Receptor binding assay: [33P]sphingosine 1-phosphate (3000 Ci/mmol; American Radiolabeled Chemicals, Inc.) was added to test compounds in 20% DMSO by competition. Membranes and WGA SPA beads (GE Healthcare) were added to give a final volume of 100 μl in 96-well plates or 50 μl in 384-well plates with assay concentrations of […] [33P]sphingosine 1-phosphate (respectively for S1P1 or S1P3), 50 mM HEPES, pH 7.5, 5 mM MgCl2, 100 mM NaCl, 0.4% fatty acid-free BSA, 1-5 μg/well of proteins in 96-well plates vs 0.6-1 μg/well of proteins in 384-well plates and 100 μg/well of WGA SPA beads in 96-well plates vs 75 μg/well of WGA SPA beads in 384-well plates. Binding was performed for 60 min at RT on a shaker and bound radioactivity was measured on a PerkinElmer 1450 MicroBeta counter. Triplicate samples were averaged and normalized as percentage of inhibition relative to total binding (only DMSO in well) and nonspecific binding (1000-fold excess of unlabeled S1P). Binding data were analyzed using the GraphPad Prism program or Genedata software.

S1P1 [2] = target: T1, S1P1; assay: Receptor binding assay, [33P]sphingosine 1-phosphate competition, S1P1 membranes, WGA SPA beads
Experimental: as §1, §2
Target sequence in this assay (P21453 whole entry, species assumed): as the sequence (P21453 whole entry) above

[3] = 96 well-plate, read-out: S1P3 binding Ki (M) (96 well-plate)
[4] = 384 well-plate, read-out: S1P3 binding Ki (M) (384 well-plate)
[5] = 96 well-plate, read-out: S1P1 binding Ki (M) (96 well-plate)
[6] = 384 well-plate, read-out: S1P1 binding Ki (M) (384 well-plate)

| Compound | EC50 (S1P1 [1]) [nM] | Ki (S1P3; [3]) [M] | Ki (S1P3; [4]) [M] | Ki (S1P1 [2]; [5]) [M] | Ki (S1P1 [2]; [6]) [M] |
| --- | --- | --- | --- | --- | --- |
| CCN(CCC(=O)O)Cc1cccc(-c2noc(-c3ccc(-c4ccccc4C)c(COC)c3)n2)c1 [Example 63, N-ethyl-N-(3-{5-[2-(methoxymethyl)-2′-methylbiphenyl-4-yl]-1,2,4-oxadiazol-3-yl}benzyl)-beta-alanine, hydrochloride salt] | 3.38 | 3.98e-08 | 1.25e-07 | 1.61e-10 |  |
| COCc1cc(-c2nc(-c3ccc(CN(C)CCC(=O)O)c(F)c3)no2)ccc1-c1ccccc1C [Example 73, N-(2-fluoro-4-{5-[2-(methoxymethyl)-2′-methylbiphenyl-4-yl]-1,2,4-oxadiazol-3-yl}benzyl)-N-methyl-beta-alanine, hydrochloride salt] | 1.27 | 4.95e-08 |  | 1.07e-10 |  |
| Cc1cc(CNCC(=O)O)ccc1-c1noc(-c2ccc(-c3ccccc3C)c(C(F)(F)F)c2)n1 [Example 107, 2-(3-methyl-4-(5-(2′-methyl-2-(trifluoromethyl)biphenyl-4-yl)-1,2,4-oxadiazol-3-yl)benzylamino)acetic acid] | 2.84 |  | 2.12e-07 |  | 4.79e-10 |
| COCc1cc(-c2nc(-c3ccc(CNCC(=O)O)cc3)no2)ccc1-c1ccccc1F [Example 61, N-(4-{5-[2′-fluoro-2-(methoxymethyl)biphenyl-4-yl]-1,2,4-oxadiazol-3-yl}benzyl)glycine, hydrochloride salt] | 3.36 | 1.91e-07 |  | 2.26e-10 |  |
| C[C@H]1CCCCN1c1ccc(-c2nc(-c3cccc(CN(C)CC(=O)O)c3)no2)cc1C(F)(F)F [Example 46, N-methyl-N-(3-{5-[4-[(2S)-2-methylpiperidin-1-yl]-3-(trifluoromethyl)phenyl]-1,2,4-oxadiazol-3-yl}benzyl)glycine, hydrochloride salt] | 5.19 | 1.31e-07 |  | 1.07e-10 |  |
| COCc1cc(-c2nc(-c3ccc(CNCC(=O)O)c(F)c3)no2)ccc1-c1ccccc1C [Example 83, N-(2-fluoro-4-{5-[2-(methoxymethyl)-2′-methylbiphenyl-4-yl]-1,2,4-oxadiazol-3-yl}benzyl)glycine, hydrochloride salt] | 1.2 | 1.01e-07 | 2.75e-07 | 7.39e-11 | 1.8e-10 |
| Cc1ccccc1-c1ccc(-c2nc(-c3cc(F)cc(CN(C)CC(=O)O)c3)no2)cc1C [Example 133, N-{3-[5-(2,2′-dimethylbiphenyl-4-yl)-1,2,4-oxadiazol-3-yl]-5-fluorobenzyl}-N-methylglycine, hydrochloride salt] | 42.2 |  | 4.72e-07 |  | 2.81e-09 |
| COCc1cc(-c2nc(-c3ccc(CNCC(=O)O)c(F)c3)no2)ccc1-c1ccccc1F [Example 82, N-(2-fluoro-4-{5-[2′-fluoro-2-(methoxymethyl)biphenyl-4-yl]-1,2,4-oxadiazol-3-yl}benzyl)glycine, hydrochloride salt] | 1.73 | 4.66e-08 | 5.24e-08 | 5.42e-11 | 3.74e-10 |
| COCc1cc(-c2nc(-c3ccc(CN(C)CC(=O)O)c(F)c3)no2)ccc1-c1cccc(F)c1C [Example 91, N-(2-fluoro-4-{5-[3′-fluoro-2-(methoxymethyl)-2′-methylbiphenyl-4-yl]-1,2,4-oxadiazol-3-yl}benzyl)-N-methylglycine, hydrochloride salt] | 5.53 | 2e-07 | 3.35e-07 | 1.63e-10 | 1.13e-09 |
| COCc1cc(-c2nc(-c3ccc(CN(C)CC(=O)O)cc3C(F)(F)F)no2)ccc1-c1ccccc1C [Example 143, 2-((4-(5-(2-(methoxymethyl)-2′-methylbiphenyl-4-yl)-1,2,4-oxadiazol-3-yl)-3-(trifluoromethyl)benzyl)(methyl)amino)acetic acid] | 85.5 |  | 1.83e-06 |  | 2.32e-09 |
| CCOc1cc(-c2nc(-c3cccc(CN(C)CC(=O)O)c3)no2)ccc1-c1ccccc1C [Example 30, N-{3-[5-(2-ethoxy-2′-methylbiphenyl-4-yl)-1,2,4-oxadiazol-3-yl]benzyl}-N-methylglycine, hydrochloride salt] | 8.92 | 3e-08 |  | 2.01e-10 |  |
| COCc1cc(-c2nc(-c3cc(Cl)cc(CN(C)CC(=O)O)c3)no2)ccc1-c1ccccc1C [Example 93, N-(3-chloro-5-{5-[2-(methoxymethyl)-2′-methylbiphenyl-4-yl]-1,2,4-oxadiazol-3-yl}benzyl)-N-methylglycine, hydrochloride salt] | 26.5 | 9.4e-08 |  | 3.96e-10 |  |
| COCc1cc(-c2nc(-c3cccc(CN(CCC(=O)O)C(C)C)c3)no2)ccc1-c1ccccc1C [Example 108, N-isopropyl-N-(3-{5-[2-(methoxymethyl)-2′-methylbiphenyl-4-yl]-1,2,4-oxadiazol-3-yl}benzyl)-beta-alanine, hydrochloride salt] | 14 |  | 1.1e-06 |  | 5.06e-10 |
| CCCN(CC(=O)O)Cc1cccc(-c2noc(-c3ccc(-c4ccccc4C)c(COC)c3)n2)c1 [Example 77, N-(3-{5-[2-(methoxymethyl)-2′-methylbiphenyl-4-yl]-1,2,4-oxadiazol-3-yl}benzyl)-N-propylglycine, hydrochloride salt] | 52.6 | 6.05e-07 |  | 1.58e-09 | 9.83e-10 |
| Cc1ccccc1-c1ccc(-c2nc(-c3ccc(CNCCC(=O)O)cc3)no2)cc1C(F)(F)F [Example 84] | 1.55 | 1.56e-07 | 1.73e-07 | 1.43e-10 | 3.77e-10 |
| Cc1ccccc1-c1ccc(-c2nc(-c3ccc(CN(C)CC(=O)O)c(F)c3)no2)cc1C [Example 131, N-{4-[5-(2,2′-dimethylbiphenyl-4-yl)-1,2,4-oxadiazol-3-yl]-2-fluorobenzyl}-N-methylglycine, hydrochloride salt] | 16.2 |  | 1.98e-06 |  | 1.68e-09 |
| COCc1cc(-c2nc(-c3cc(F)cc(CN(C)CC(=O)O)c3)no2)ccc1-c1ccccc1F [Example 57, N-(3-fluoro-5-{5-[2′-fluoro-2-(methoxymethyl)biphenyl-4-yl]-1,2,4-oxadiazol-3-yl}benzyl)-N-methylglycine, hydrochloride salt] | 8.46 | 7.22e-09 |  | 1.14e-10 |  |
| COCc1cc(-c2nc(-c3cccc(CCN(C)CC(=O)OC(C)(C)C)c3)no2)ccc1-c1ccccc1C [Example 75] | 195 |  |  | 3.04e-09 |  |
| Cc1cc(-c2nc(-c3ccc(CN(C)CC(=O)O)cc3)no2)ccc1-c1ccccc1C(F)F [Example 137, N-(4-{5-[2′-(difluoromethyl)-2-methylbiphenyl-4-yl]-1,2,4-oxadiazol-3-yl}benzyl)-N-methylglycine, hydrochloride salt] | 28.9 |  |  | 8.55e-10 | 2.37e-09 |
